Test results reported in ChEMBL document CHEMBL1128609, “Chemical synthesis and biological evaluation of 1d-1,2,4,5-InsP4 and its 3-fluorinated counterpart 1d-3-F-1,2,4,5-InsP4 potent 1d-1,4,5-InsP3-like calcium mobilizing analogues” (Bioorg Med Chem Lett, 1995).

What was measured:
[1] = Effective concentration required for Calcium release via the intracellular InsP3 receptor of SH-SY5Y cells; format: functional, cell-based; conditions: Homo sapiens
[2] = Inhibitory concentration required to displace [3H]insP3 from Inositol 1,4,5-trisphosphate receptor of bovine adrenal cortex membranes; format: tissue-based

EC50 [1] [nM]	IC50 [2] [nM]	SMILES
100	9.7	O=P(O)(O)OC1C(O)C(OP(=O)(O)O)C(OP(=O)(O)O)C(F)C1OP(=O)(O)O (stereo unspecified)
5420	269	O=P(O)(O)OC1C(O)C(O)C(OP(=O)(O)O)C(OP(=O)(O)O)C1F (stereo unspecified)
51.6	5.5	O=P(O)(O)O[C@@H]1[C@H](O)[C@H](O)[C@@H](OP(=O)(O)O)[C@H](OP(=O)(O)O)[C@H]1O [INS(1,4,5)P3]
